According to patent US20170044104A1, “NEW PESTICIDAL COMPOUNDS AND USES” (BAYER CROPSCIENCE AG, priority 2013, published 2017):
Like-named read-outs stand apart in the source and are kept apart here.

Legend:
[1] = test system: Nippostrongylus brasiliensis; assay: Nippostrongylus brasiliensis (NIPOBR) assay, acetylcholine esterase readout; details: 10 ppm (10 μg/ml), adult worms, read-out: activity (reduction of AChE compared to negative control)
Description: Adult Nippostrongylus brasiliensis were washed with saline buffer containing 100 U/ml penicillin, 0.1 mg/ml streptomycin and 2.5 μg/ml amphotericin B. Test compounds were dissolved in DMSO and worms were incubated in medium in a final concentration of 10 μg/ml (10 ppm). An aliquot of the medium was used to determine the acetylcholine esterase activity in comparison to a negative control. The principle of measuring acetylcholine esterase as readout for anthelmintic activity was described in Rapson et al (1986) and Rapson et al (1987).

Cooperia curticei = Cooperia curticei (COOPCU) larval mortality assay; details: 120 h, after 5 days, read-out: activity (percentage of larval mortality); for mortality at 20 ppm: application rate 20 ppm
Description: (§1) Solvent: dimethyl sulfoxide
(§2) To produce a suitable preparation of active compound, 10 mg of active compound are dissolved in 0.5 ml solvent, and the concentrate is diluted with “Ringer's solution” to the desired concentration.
Approximately 40 nematode larvae (Cooperia curticei) are transferred into a test tube containing the compound solution.
After 5 days percentage of larval mortality is recorded. 100% efficacy means all larvae are killed; 0% efficacy means no larvae are killed.

Haemonchus contortus = Haemonchus contortus (HAEMCO) larval mortality assay; details: 120 h; for mortality at 20 ppm: application rate 20 ppm, after 5 days, read-out: activity (percentage of larval mortality); for Emax at 0.8 ppm / Emax at 4 ppm / Emax at 20 ppm: comparative test, 5 dat, read-out: % Efficacy
Description: as §1, §2
Approximately 40 larvae of the red stomach worm (Haemonchus contortus) are transferred into a test tube containing compound solution.
After 5 days percentage of larval mortality are recorded. 100% efficacy means all larvae are killed, 0% efficacy means no larvae are killed.

Meloidogyne incognita = Meloidogyne incognita (MELGIN) gall formation assay; type: in vivo; details: 336 h, read-out: nematicidal activity (percentage of gall formation)
Description: Solvent: 125.0 parts by weight of acetone
To produce a suitable preparation of active compound, 1 part by weight of active compound is mixed with the stated amount of solvent, and the concentrate is diluted with water to the desired concentration.
Vessels are filled with sand, a solution of the active ingredient, a suspension containing eggs and larvae of the southern root-knot nematode (Meloidogyne incognita) and salad seeds. The salad seeds germinate and the seedlings grow. Galls develop in the roots.
After 14 days the nematicidal activity is determined on the basis of the percentage of gall formation. 100% means no galls were found and 0% means the number of galls found on the roots of the treated plants was equal to that in untreated control plants.

[2] = application rate 20 ppm, after 14 days, salad seedlings

O=C(NCCc1cccc(-c2ccc(OCC(F)(F)F)nc2)c1)c1ccccc1C(F)(F)F [Example 1-1]
inhibition at 10 ppm [1]: ≥ 60%
mortality at 20 ppm (Cooperia curticei): 80%
mortality at 20 ppm (Haemonchus contortus): 80%

O=C(NCCc1cccc(-c2ccc(Cl)nc2)c1)c1ccccc1C(F)(F)F [Example 1-9]
inhibition at 10 ppm [1]: ≥ 60%
mortality at 20 ppm (Cooperia curticei): 100%

O=C(NCCc1ccc(-c2cncc(Cl)c2)cc1)c1cccnc1C(F)(F)F [Example 1-16]
pest or weed control at 20 ppm (Meloidogyne incognita; [2]): 90%
mortality at 20 ppm (Cooperia curticei): 100%
mortality at 20 ppm (Haemonchus contortus): 80%

O=C(NCCc1ccc(-c2cncc(F)c2)cc1)c1cccnc1C(F)(F)F [Example 1-20]
pest or weed control at 20 ppm (Meloidogyne incognita; [2]): 90%
mortality at 20 ppm (Cooperia curticei): 100%
mortality at 20 ppm (Haemonchus contortus): 80%

Cn1cc(-c2ccc(CCNC(=O)c3cccnc3C(F)(F)F)cc2)cn1 [Example 1-24]
pest or weed control at 20 ppm (Meloidogyne incognita; [2]): 90%
mortality at 20 ppm (Cooperia curticei): 90%

O=C(NCCc1ccc(-c2cccnc2)cc1Cl)c1ccccc1C(F)(F)F [Example 1-33]
inhibition at 10 ppm [1]: ≥ 60%
mortality at 20 ppm (Cooperia curticei): 100%
mortality at 20 ppm (Haemonchus contortus): 100%

O=C(NCCc1ccc(-c2cncc(F)c2)cc1Cl)c1ccccc1C(F)(F)F [Example 1-37]
inhibition at 10 ppm [1]: ≥ 60%
pest or weed control at 20 ppm (Meloidogyne incognita): 90%
mortality at 20 ppm (Cooperia curticei): 100%
mortality at 20 ppm (Haemonchus contortus): 100%
Emax at 0.8 ppm (Haemonchus contortus): 100%
Emax at 4 ppm (Haemonchus contortus): 100%
Emax at 20 ppm (Haemonchus contortus): 100%

O=C(NCCc1ccc(-c2ccccn2)cc1Cl)c1ccccc1C(F)(F)F [Example 1-39]
pest or weed control at 20 ppm (Meloidogyne incognita; [2]): 100%
mortality at 20 ppm (Cooperia curticei): 100%
mortality at 20 ppm (Haemonchus contortus): 100%

Cc1ncccc1-c1ccc(CCNC(=O)c2ccccc2C(F)(F)F)c(Cl)c1 [Example 1-42]
pest or weed control at 20 ppm (Meloidogyne incognita; [2]): 90%
mortality at 20 ppm (Cooperia curticei): 100%
mortality at 20 ppm (Haemonchus contortus): 100%

O=C(NCCc1ccc(-c2ccc(F)nc2)cc1Cl)c1ccccc1C(F)(F)F [Example 1-44]
inhibition at 10 ppm [1]: ≥ 60%
pest or weed control at 20 ppm (Meloidogyne incognita): 90%
mortality at 20 ppm (Cooperia curticei): 100%
mortality at 20 ppm (Haemonchus contortus): 100%
Emax at 0.8 ppm (Haemonchus contortus): 100%
Emax at 4 ppm (Haemonchus contortus): 100%
Emax at 20 ppm (Haemonchus contortus): 100%

O=C(NCCc1ccc(-c2cncc(Cl)c2)cc1Cl)c1ccccc1C(F)(F)F [Example 1-45, N-{2-[2-chloro-4-(5-chloropyridin-3-yl)phenyl]ethyl}-2-(trifluoromethyl)benzamide]
inhibition at 10 ppm [1]: ≥ 60%
mortality at 20 ppm (Cooperia curticei): 100%
mortality at 20 ppm (Haemonchus contortus): 100%
Emax at 0.8 ppm (Haemonchus contortus): 100%
Emax at 4 ppm (Haemonchus contortus): 100%
Emax at 20 ppm (Haemonchus contortus): 100%

Cn1cc(-c2ccc(CCNC(=O)c3ccccc3C(F)(F)F)c(Cl)c2)cn1 [Example 1-47]
pest or weed control at 20 ppm (Meloidogyne incognita; [2]): 100%
mortality at 20 ppm (Cooperia curticei): 100%
mortality at 20 ppm (Haemonchus contortus): 100%
Emax at 0.8 ppm (Haemonchus contortus): 80%
Emax at 4 ppm (Haemonchus contortus): 100%
Emax at 20 ppm (Haemonchus contortus): 100%

O=C(NCCc1ccc(-c2cccnc2Cl)cc1Cl)c1ccccc1C(F)(F)F [Example 1-48]
inhibition at 10 ppm [1]: ≥ 60%
pest or weed control at 20 ppm (Meloidogyne incognita): 90%
mortality at 20 ppm (Cooperia curticei): 100%
mortality at 20 ppm (Haemonchus contortus): 100%
Emax at 0.8 ppm (Haemonchus contortus): 80%
Emax at 4 ppm (Haemonchus contortus): 100%
Emax at 20 ppm (Haemonchus contortus): 100%

O=C(NCCc1ccc(-c2ccc(Cl)nc2Cl)cc1Cl)c1ccccc1C(F)(F)F [Example 1-49]
inhibition at 10 ppm [1]: ≥ 60%
mortality at 20 ppm (Cooperia curticei): 100%
mortality at 20 ppm (Haemonchus contortus): 90%

O=C(NCCc1ccc(-c2cncc(Cl)c2)cc1)c1ccccc1C(F)(F)F [Example 1-53]
inhibition at 10 ppm [1]: ≥ 60%
mortality at 20 ppm (Cooperia curticei): 100%
mortality at 20 ppm (Haemonchus contortus): 100%

O=C(NCCc1ccc(-c2ccc(Cl)nc2)cc1Cl)c1ccccc1C(F)(F)F [Example 1-66]
pest or weed control at 20 ppm (Meloidogyne incognita; [2]): 90%
mortality at 20 ppm (Cooperia curticei): 100%
mortality at 20 ppm (Haemonchus contortus): 100%

O=C(NCC(F)(F)c1ccc(-c2ccc(Cl)nc2)cc1Cl)c1ccccc1C(F)(F)F [Example 1-68]
inhibition at 10 ppm [1]: ≥ 60%
pest or weed control at 20 ppm (Meloidogyne incognita): 90%
mortality at 20 ppm (Cooperia curticei): 100%
mortality at 20 ppm (Haemonchus contortus): 100%

O=C(NCC(F)(F)c1ccc(-n2cc(C(F)(F)F)cn2)cc1Cl)c1ccccc1C(F)(F)F [Example 1-69, N-[2-[2-chloro-4-[4-(trifluoromethyl)pyrazol-1-yl]phenyl]-2,2-difluoro-ethyl]-2-(trifluoromethyl)benzamide]
inhibition at 10 ppm [1]: ≥ 60%
pest or weed control at 20 ppm (Meloidogyne incognita): 100%
mortality at 20 ppm (Cooperia curticei): 100%
mortality at 20 ppm (Haemonchus contortus): 100%
Emax at 0.8 ppm (Haemonchus contortus): 100%
Emax at 4 ppm (Haemonchus contortus): 100%
Emax at 20 ppm (Haemonchus contortus): 100%

O=C(NCC(F)c1ccc(-c2cccnc2Cl)cc1Cl)c1ccccc1C(F)(F)F (stereo not drawn) [Example 1-75]
inhibition at 10 ppm [1]: ≥ 60%
mortality at 20 ppm (Cooperia curticei): 100%
mortality at 20 ppm (Haemonchus contortus): 100%

O=C(NCC(F)c1ccc(-c2cccnc2Cl)cc1Cl)c1cccnc1C(F)(F)F (stereo not drawn) [Example 1-80]
pest or weed control at 20 ppm (Meloidogyne incognita; [2]): 90%
mortality at 20 ppm (Cooperia curticei): 100%
mortality at 20 ppm (Haemonchus contortus): 100%

O=C(NCC(F)c1ccc(-c2ccnc(F)c2)cc1Cl)c1cccnc1C(F)(F)F (stereo not drawn) [Example 1-81]
pest or weed control at 20 ppm (Meloidogyne incognita; [2]): 100%
mortality at 20 ppm (Cooperia curticei): 100%
mortality at 20 ppm (Haemonchus contortus): 100%

O=C(NCC(F)c1ccc(-c2cncc(Cl)c2)cc1Cl)c1nccnc1C(F)(F)F (stereo not drawn) [Example 1-82]
inhibition at 10 ppm [1]: ≥ 60%
pest or weed control at 20 ppm (Meloidogyne incognita): 100%
mortality at 20 ppm (Cooperia curticei): 100%
mortality at 20 ppm (Haemonchus contortus): 100%

O=C(NCC(F)c1ccc(-c2ccc(Cl)nc2)cc1Cl)c1nccnc1C(F)(F)F (stereo not drawn) [Example 1-85]
pest or weed control at 20 ppm (Meloidogyne incognita; [2]): 100%
mortality at 20 ppm (Cooperia curticei): 100%
mortality at 20 ppm (Haemonchus contortus): 100%

O=C(NCC(F)c1ccc(-c2ccc(Cl)nc2)cc1Cl)c1cccnc1C(F)(F)F (stereo not drawn) [Example 1-86]
pest or weed control at 20 ppm (Meloidogyne incognita; [2]): 100%
mortality at 20 ppm (Cooperia curticei): 100%
mortality at 20 ppm (Haemonchus contortus): 100%

O=C(NCC(F)c1ccc(-c2ccc(F)nc2)cc1Cl)c1nccnc1C(F)(F)F (stereo not drawn) [Example 1-87]
inhibition at 10 ppm [1]: ≥ 60%
pest or weed control at 20 ppm (Meloidogyne incognita): 100%
mortality at 20 ppm (Cooperia curticei): 100%
mortality at 20 ppm (Haemonchus contortus): 100%

O=C(NCC(F)c1ccc(-c2ccc(F)nc2)cc1Cl)c1cccnc1C(F)(F)F (stereo not drawn) [Example 1-88]
inhibition at 10 ppm [1]: ≥ 60%
pest or weed control at 20 ppm (Meloidogyne incognita): 100%
mortality at 20 ppm (Cooperia curticei): 100%
mortality at 20 ppm (Haemonchus contortus): 100%

COc1ccc(-c2ccc(C(F)(F)CNC(=O)c3ccccc3C(F)(F)F)c(Cl)c2)cn1 [Example 1-90]
inhibition at 10 ppm [1]: ≥ 60%
mortality at 20 ppm (Cooperia curticei): 100%
mortality at 20 ppm (Haemonchus contortus): 100%

O=C(NCC(F)(F)c1ccc(-c2cc(Cl)nc(Cl)c2)cc1Cl)c1ccccc1C(F)(F)F [Example 1-92]
inhibition at 10 ppm [1]: ≥ 60%
mortality at 20 ppm (Cooperia curticei): 100%
mortality at 20 ppm (Haemonchus contortus): 100%

O=C(NCC(F)(F)c1ccc(-c2ccc(C(F)(F)F)nc2)cc1Cl)c1ccccc1C(F)(F)F [Example 1-94]
pest or weed control at 20 ppm (Meloidogyne incognita; [2]): 100%
mortality at 20 ppm (Cooperia curticei): 100%
mortality at 20 ppm (Haemonchus contortus): 100%

O=C(NCC(F)(F)c1ccc(-c2cncc(F)c2)cc1Cl)c1ccccc1C(F)(F)F [Example 1-96]
inhibition at 10 ppm [1]: ≥ 60%
mortality at 20 ppm (Cooperia curticei): 100%
mortality at 20 ppm (Haemonchus contortus): 100%

O=C(NCC(F)(F)c1ccc(-c2cncc(Cl)c2)cc1Cl)c1ccccc1C(F)(F)F [Example 1-97]
inhibition at 10 ppm [1]: ≥ 60%
mortality at 20 ppm (Cooperia curticei): 100%
mortality at 20 ppm (Haemonchus contortus): 100%

CC(F)(CNC(=O)c1cccnc1C(F)(F)F)c1ccc(-c2cncc(F)c2)cc1Cl (stereo not drawn) [Example 1-98]
inhibition at 10 ppm [1]: ≥ 60%
mortality at 20 ppm (Cooperia curticei): 100%
mortality at 20 ppm (Haemonchus contortus): 100%

O=C(NCC(F)(F)c1ccc(-c2ccc(F)nc2)cc1Cl)c1cccnc1C(F)(F)F [Example 1-104]
pest or weed control at 20 ppm (Meloidogyne incognita; [2]): 100%
mortality at 4 ppm (Cooperia curticei; application rate 4 ppm): 100%
mortality at 20 ppm (Haemonchus contortus): 90%

O=C(NCC(F)(F)c1ccc(-c2cncc(Cl)c2)cc1F)c1ccccc1C(F)(F)F [Example 1-107]
inhibition at 10 ppm [1]: ≥ 60%
mortality at 20 ppm (Cooperia curticei): 100%
mortality at 20 ppm (Haemonchus contortus): 100%

O=C(NCC(F)(F)c1ccc(-c2cncc(F)c2)cc1F)c1ccccc1C(F)(F)F [Example 1-111]
inhibition at 10 ppm [1]: ≥ 60%
mortality at 20 ppm (Cooperia curticei): 100%
mortality at 20 ppm (Haemonchus contortus): 100%

O=C(NCC(F)(F)c1ccc(-c2cncc(Cl)c2)cc1C(F)(F)F)c1ccccc1C(F)(F)F [Example 1-120]
pest or weed control at 20 ppm (Meloidogyne incognita; [2]): 100%
mortality at 20 ppm (Cooperia curticei): 100%
mortality at 20 ppm (Haemonchus contortus): 100%

O=C(NCC(F)(F)c1ccc(-c2ccc(Cl)nc2)cc1C(F)(F)F)c1ccccc1C(F)(F)F [Example 1-126]
pest or weed control at 20 ppm (Meloidogyne incognita; [2]): 90%
mortality at 20 ppm (Cooperia curticei): 100%
mortality at 20 ppm (Haemonchus contortus): 100%

O=C(NCC(F)(F)c1ccc(-c2ccc(F)nc2)cc1C(F)(F)F)c1ccccc1C(F)(F)F [Example 1-128]
pest or weed control at 20 ppm (Meloidogyne incognita; [2]): 100%
mortality at 20 ppm (Cooperia curticei): 100%
mortality at 20 ppm (Haemonchus contortus): 100%
